The source of these data is patent publication US6623914B2, “Method for preparing an acid salt of p-phenylenediamine-type photographic color developers” (Eastman Chemical Company, priority 2001, dated 2003).

The nature of the data set: Solubility (saturation concentration) of color developer free base in solvents at ambient temperature. The settings on record: ambient temperatures; liquid free base; stated, saturation concentration not evaluated.

Structures are written as SMILES.

Procedure: To define the free base solution product compositions, the solubility of the free base form of color developers N-ethyl-N-(2-methanesulfonylaminoethyl)-2-methyl-p-phenylenediamine and N-ethyl-N-(2-hydroxyethyl)-2-methyl-p-phenylenediamine was determined in a number of potential solvents at ambient temperature, nominally 24° C.
A small quantity, about 3 weight % relative to the weight of the solvent, of N,N-diethylhydroxylamine (DEHA) was added as a preservative to each determination. Excess color developer free base identified above was added to each solvent and saturation was achieved by mixing for several hours at room temperature.

On to `CCN(CC)c1ccc(N)cc1C` [N,N-diethyl-2-methyl-p-phenylenediamine], for which the “Miscibility with the water-soluble, water-miscible, hydroxy-containing solvent candidates” value is “fully miscible”.
